Data taken from patent publication US6156700A, “3-(1,2-Benzisothiazol- and isoxazol-5-yl)-2,4(1H,3H)-pyrimidinedione or thione and 3-(1,2-benzisothiazol- and isoxazol-5-yl)-4(3H)-pyrimidinone or thione herbicidal agents” (American Cyanmid Company, priority 1998, dated 2000).

Tests used:
SETVI [1] = experiment: Postemergence herbicidal evaluation; format: in vivo
CHEAL [2] = experiment: Postemergence herbicidal evaluation; format: in vivo
CASOB [3] = experiment: Postemergence herbicidal evaluation; format: in vivo
GLXMAW [4] = experiment: Postemergence herbicidal evaluation; format: in vivo
ORYSAT [5] = experiment: Preemergence herbicidal evaluation; format: in vivo, Oryza sativa; parameters: scale not given here
Description: (§1) The preemergence and postemergence herbicidal properties of certain compounds of the present invention are compared with certain compounds disclosed in U.S. Pat. Nos. 5,484,763 and 5,523,278. The evaluations are performed as described in Examples 185 and 186. Data in Tables V and VI are reported by the compound number given in Example 185 for the compounds of this invention or by comparative compound letter for the compounds disclosed in U.S. Pat. Nos. 5,484,763 and 5,523,278.

GALAP [6] = experiment: Postemergence herbicidal evaluation; format: in vivo
AMBEL [7] = experiment: Postemergence herbicidal evaluation; format: in vivo
ZEAMX [8] = experiment: Postemergence herbicidal evaluation; format: in vivo
IPOSS [9] = experiment: Preemergence herbicidal evaluation; format: in vivo; parameters: scale not given here
Description: as §1

GLXMAW [10] = experiment: Preemergence herbicidal evaluation; format: in vivo; parameters: scale not given here
Description: as §1

ZEAMX [11] = experiment: Preemergence herbicidal evaluation; format: in vivo; parameters: scale not given here
Description: as §1

AMBEL [12] = experiment: Preemergence herbicidal evaluation; format: in vivo; parameters: scale not given here
Description: as §1

SETVI [13] = experiment: Preemergence herbicidal evaluation; format: in vivo; parameters: scale not given here
Description: as §1

ABUTH [14] = experiment: Preemergence herbicidal evaluation; format: in vivo; parameters: scale not given here
Description: as §1

ECHCG [15] = experiment: Preemergence herbicidal evaluation; format: in vivo; parameters: scale not given here
Description: as §1

CHEAL [16] = experiment: Preemergence herbicidal evaluation; format: in vivo; parameters: scale not given here
Description: as §1

GALAP [17] = experiment: Preemergence herbicidal evaluation; format: in vivo; parameters: scale not given here
Description: as §1

CASOB [18] = experiment: Preemergence herbicidal evaluation; format: in vivo; parameters: scale not given here
Description: as §1

IPOSS [19] = experiment: Postemergence herbicidal evaluation; format: in vivo
ABUTH [20] = experiment: Postemergence herbicidal evaluation; format: in vivo
ORYSAT [21] = experiment: Postemergence herbicidal evaluation; format: in vivo, Oryza sativa
ECHCG [22] = experiment: Postemergence herbicidal evaluation; format: in vivo

O=C1C2=C(CCCC2)C(=O)N1c1ccc2sncc2c1 [C]
herbicidal effect rating (SETVI [1]; 0.0157-0.0160 kg/ha): 0.0
herbicidal effect rating (SETVI [1]; 0.0313-0.0320 kg/ha): 0.0
herbicidal effect rating (SETVI [1]; 0.0625-0.0640 kg/ha): 0.0
herbicidal effect rating (SETVI [1]; 0.1250 kg/ha): 0.0
herbicidal effect rating (SETVI [1]; 0.2500 kg/ha): 0.0
herbicidal effect rating (SETVI [1]; 0.5000 kg/ha): 2.0
herbicidal effect rating (CHEAL [2]; 0.0157-0.0160 kg/ha): 0.0
herbicidal effect rating (CHEAL [2]; 0.0313-0.0320 kg/ha): 3.0
herbicidal effect rating (CHEAL [2]; 0.0625-0.0640 kg/ha): 3.0
herbicidal effect rating (CHEAL [2]; 0.1250 kg/ha): 3.0
herbicidal effect rating (CHEAL [2]; 0.2500 kg/ha): 4.0
herbicidal effect rating (CHEAL [2]; 0.5000 kg/ha): 5.0
herbicidal effect rating (CASOB [3]; 0.0157-0.0160 kg/ha): 3.0
herbicidal effect rating (CASOB [3]; 0.0313-0.0320 kg/ha): 8.0
herbicidal effect rating (CASOB [3]; 0.0625-0.0640 kg/ha): 7.0
herbicidal effect rating (CASOB [3]; 0.1250 kg/ha): 7.0
herbicidal effect rating (CASOB [3]; 0.2500 kg/ha): 7.0
herbicidal effect rating (CASOB [3]; 0.5000 kg/ha): 9.0
herbicidal effect rating (GLXMAW [4]; 0.0157-0.0160 kg/ha): 1.0
herbicidal effect rating (GLXMAW [4]; 0.0313-0.0320 kg/ha): 1.5
herbicidal effect rating (GLXMAW [4]; 0.0625-0.0640 kg/ha): 3.0
herbicidal effect rating (GLXMAW [4]; 0.1250 kg/ha): 2.0
herbicidal effect rating (GLXMAW [4]; 0.2500 kg/ha): 2.5
herbicidal effect rating (GLXMAW [4]; 0.5000 kg/ha): 4.5
herbicidal effect rating (ORYSAT [5]; 0.0313-0.0320 kg/ha): 1.0
herbicidal effect rating (ORYSAT [5]; 0.0620-0.0630 kg/ha): 2.0
herbicidal effect rating (ORYSAT [5]; 0.1250 kg/ha): 2.0
herbicidal effect rating (ORYSAT [5]; 0.2500 kg/ha): 4.0
herbicidal effect rating (ORYSAT [5]; 0.5000 kg/ha): 4.0
herbicidal effect rating (GALAP [6]; 0.0157-0.0160 kg/ha): 2.0
herbicidal effect rating (GALAP [6]; 0.0313-0.0320 kg/ha): 3.0
herbicidal effect rating (GALAP [6]; 0.0625-0.0640 kg/ha): 5.0
herbicidal effect rating (GALAP [6]; 0.1250 kg/ha): 6.0
herbicidal effect rating (GALAP [6]; 0.2500 kg/ha): 6.0
herbicidal effect rating (GALAP [6]; 0.5000 kg/ha): 9.0
herbicidal effect rating (AMBEL [7]; 0.0157-0.0160 kg/ha): 6.0
herbicidal effect rating (AMBEL [7]; 0.0313-0.0320 kg/ha): 6.0
herbicidal effect rating (AMBEL [7]; 0.0625-0.0640 kg/ha): 7.0
herbicidal effect rating (AMBEL [7]; 0.1250 kg/ha): 8.0
herbicidal effect rating (AMBEL [7]; 0.2500 kg/ha): 7.0
herbicidal effect rating (AMBEL [7]; 0.5000 kg/ha): 9.0
herbicidal effect rating (ZEAMX [8]; 0.0157-0.0160 kg/ha): 1.5
herbicidal effect rating (ZEAMX [8]; 0.0313-0.0320 kg/ha): 2.0
herbicidal effect rating (ZEAMX [8]; 0.0625-0.0640 kg/ha): 1.5
herbicidal effect rating (ZEAMX [8]; 0.1250 kg/ha): 1.5
herbicidal effect rating (ZEAMX [8]; 0.2500 kg/ha): 2.5
herbicidal effect rating (ZEAMX [8]; 0.5000 kg/ha): 3.0
herbicidal effect rating (IPOSS [9]; 0.0313-0.0320 kg/ha): 0.0
herbicidal effect rating (IPOSS [9]; 0.0620-0.0630 kg/ha): 0.0
herbicidal effect rating (IPOSS [9]; 0.1250 kg/ha): 0.0
herbicidal effect rating (IPOSS [9]; 0.2500 kg/ha): 0.0
herbicidal effect rating (IPOSS [9]; 0.5000 kg/ha): 2.0
herbicidal effect rating (GLXMAW [10]; 0.0313-0.0320 kg/ha): 0.0
herbicidal effect rating (GLXMAW [10]; 0.0620-0.0630 kg/ha): 0.0
herbicidal effect rating (GLXMAW [10]; 0.1250 kg/ha): 0.0
herbicidal effect rating (GLXMAW [10]; 0.2500 kg/ha): 0.0
herbicidal effect rating (GLXMAW [10]; 0.5000 kg/ha): 0.0
herbicidal effect rating (ZEAMX [11]; 0.0313-0.0320 kg/ha): 0.0
herbicidal effect rating (ZEAMX [11]; 0.0620-0.0630 kg/ha): 0.0
herbicidal effect rating (ZEAMX [11]; 0.1250 kg/ha): 0.0
herbicidal effect rating (ZEAMX [11]; 0.2500 kg/ha): 0.0
herbicidal effect rating (ZEAMX [11]; 0.5000 kg/ha): 0.0
herbicidal effect rating (AMBEL [12]; 0.0313-0.0320 kg/ha): 3.0
herbicidal effect rating (AMBEL [12]; 0.0620-0.0630 kg/ha): 3.0
herbicidal effect rating (AMBEL [12]; 0.1250 kg/ha): 2.0
herbicidal effect rating (AMBEL [12]; 0.2500 kg/ha): 2.0
herbicidal effect rating (AMBEL [12]; 0.5000 kg/ha): 6.0
herbicidal effect rating (SETVI [13]; 0.0313-0.0320 kg/ha): 0.0
herbicidal effect rating (SETVI [13]; 0.0620-0.0630 kg/ha): 0.0
herbicidal effect rating (SETVI [13]; 0.1250 kg/ha): 2.0
herbicidal effect rating (SETVI [13]; 0.2500 kg/ha): 4.0
herbicidal effect rating (SETVI [13]; 0.5000 kg/ha): 5.0
herbicidal effect rating (ABUTH [14]; 0.0313-0.0320 kg/ha): 0.0
herbicidal effect rating (ABUTH [14]; 0.0620-0.0630 kg/ha): 2.0
herbicidal effect rating (ABUTH [14]; 0.1250 kg/ha): 4.0
herbicidal effect rating (ABUTH [14]; 0.2500 kg/ha): 9.0
herbicidal effect rating (ABUTH [14]; 0.5000 kg/ha): 9.0
herbicidal effect rating (ECHCG [15]; 0.0313-0.0320 kg/ha): 0.0
herbicidal effect rating (ECHCG [15]; 0.0620-0.0630 kg/ha): 0.0
herbicidal effect rating (ECHCG [15]; 0.1250 kg/ha): 2.0
herbicidal effect rating (ECHCG [15]; 0.2500 kg/ha): 4.0
herbicidal effect rating (ECHCG [15]; 0.5000 kg/ha): 6.0
herbicidal effect rating (CHEAL [16]; 0.0313-0.0320 kg/ha): 3.0
herbicidal effect rating (CHEAL [16]; 0.0620-0.0630 kg/ha): 4.0
herbicidal effect rating (CHEAL [16]; 0.1250 kg/ha): 5.0
herbicidal effect rating (CHEAL [16]; 0.2500 kg/ha): 3.0
herbicidal effect rating (CHEAL [16]; 0.5000 kg/ha): 7.0
herbicidal effect rating (GALAP [17]; 0.0620-0.0630 kg/ha): 2.0
herbicidal effect rating (GALAP [17]; 0.1250 kg/ha): 2.0
herbicidal effect rating (GALAP [17]; 0.2500 kg/ha): 6.0
herbicidal effect rating (GALAP [17]; 0.5000 kg/ha): 7.5
herbicidal effect rating (CASOB [18]; 0.0313-0.0320 kg/ha): 1.0
herbicidal effect rating (CASOB [18]; 0.0620-0.0630 kg/ha): 0.0
herbicidal effect rating (CASOB [18]; 0.1250 kg/ha): 0.0
herbicidal effect rating (CASOB [18]; 0.2500 kg/ha): 0.0
herbicidal effect rating (CASOB [18]; 0.5000 kg/ha): 5.5
herbicidal effect rating (IPOSS [19]; 0.0157-0.0160 kg/ha): 2.0
herbicidal effect rating (IPOSS [19]; 0.0313-0.0320 kg/ha): 6.0
herbicidal effect rating (IPOSS [19]; 0.0625-0.0640 kg/ha): 5.0
herbicidal effect rating (IPOSS [19]; 0.1250 kg/ha): 7.0
herbicidal effect rating (IPOSS [19]; 0.2500 kg/ha): 6.0
herbicidal effect rating (IPOSS [19]; 0.5000 kg/ha): 7.0
herbicidal effect rating (ABUTH [20]; 0.0157-0.0160 kg/ha): 8.0
herbicidal effect rating (ABUTH [20]; 0.0313-0.0320 kg/ha): 9.0
herbicidal effect rating (ABUTH [20]; 0.0625-0.0640 kg/ha): 9.0
herbicidal effect rating (ABUTH [20]; 0.1250 kg/ha): 9.0
herbicidal effect rating (ABUTH [20]; 0.2500 kg/ha): 9.0
herbicidal effect rating (ABUTH [20]; 0.5000 kg/ha): 9.0
herbicidal effect rating (ORYSAT [21]; 0.0157-0.0160 kg/ha): 2.0
herbicidal effect rating (ORYSAT [21]; 0.0313-0.0320 kg/ha): 2.0
herbicidal effect rating (ORYSAT [21]; 0.0625-0.0640 kg/ha): 2.5
herbicidal effect rating (ORYSAT [21]; 0.1250 kg/ha): 2.5
herbicidal effect rating (ORYSAT [21]; 0.2500 kg/ha): 3.0
herbicidal effect rating (ORYSAT [21]; 0.5000 kg/ha): 4.5
herbicidal effect rating (ECHCG [22]; 0.0157-0.0160 kg/ha): 0.0
herbicidal effect rating (ECHCG [22]; 0.0313-0.0320 kg/ha): 0.0
herbicidal effect rating (ECHCG [22]; 0.0625-0.0640 kg/ha): 0.0
herbicidal effect rating (ECHCG [22]; 0.1250 kg/ha): 0.0
herbicidal effect rating (ECHCG [22]; 0.2500 kg/ha): 0.0
herbicidal effect rating (ECHCG [22]; 0.5000 kg/ha): 0.0
